Data: patent publication US20240148747A1, “SMALL MOLECULE ACTIVATORS OF YAP TRANSCRIPTIONAL ACTIVITY FOR REGENERATIVE ORGAN REPAIR” (THE SCRIPPS RESEARCH INSTITUTE, priority 2021, published 2024)
Like-named read-outs stand apart in the source and are kept apart here.

Key:
YAP = assay: TEAD-LUC activation assay (293A-TEAD-LUC reporter); assay type: cell-based; conditions: Homo sapiens, read-out: TEAD-LUC activation assay EC50
Description: More specifically, we used a 293A cell line harboring a stably integrated cassette containing 8 copies of the TEAD binding element upstream of luciferase (8xGTII-LUC). These cells retain responsiveness to contact inhibition-induced decreases in YAP transcriptional output.^6 The TEAD-responsive reporter assay (called 293A-TEAD-LUC throughout) was adapted to 1536-well format and then used to screen a library of ˜738k compounds for YAP-inducing activity.
Additional compounds of the present disclosure were subjected to the assay described above.

[1] = Cytotoxicity in the TEAD-LUC activation assay; conditions: human

Row | SMILES | EC50 (YAP; Table 4) [µM] | IC50 [1] [µM] | EC50 (YAP; Table 3) [µM]
1 | COc1ccc(OC)c(-c2cc(C(=O)NCCc3nc(C)cs3)no2)c1 [Compound 130] | > 20 | > 20 | 
2 | Cn1nc(C(=O)NCCCn2cccc2)cc1-c1ccccc1 [Compound 11] |  | > 20 | > 20
3 | O=C(NCCCc1nccs1)c1cc(C(F)(F)F)ncn1 [Compound 105] |  | > 20 | > 20
4 | O=C(NCCCN1CCCCCC1=O)c1cc(-c2ccccc2)on1 [Compound 141] | 3.97 | > 20 | 
5 | O=C(NCCN1CCOCC1)c1cc(-c2ccccc2)on1 [Compound 122] | 5.48 | > 20 | 
6 | CN1C(=O)CCc2cc(NC(=O)c3ccncc3)ccc21 [Compound 146] | 15 | > 20 | 
7 | O=C(NCCCN1CCOCC1)c1cc(-c2ccccc2F)on1 [Compound 100] |  | > 20 | 10
8 | CN(CCO)C(=O)c1cc(-c2ccccc2)on1 [Compound 66] |  | > 20 | > 20
9 | Cc1ccc(-c2cc(C(=O)NCCCn3ccnn3)no2)cc1 [Compound 72] |  | > 20 | > 20
10 | O=C(NCCCN1CCOCC1)c1cc(-c2ccc(Cl)cc2)on1 [Compound 134] | > 20 | > 20 | 
11 | O=C(NCCCc1nccs1)c1ncoc1-c1ccccc1 [Compound 87] |  | > 20 | > 20
12 | CN(CCCNC(=O)c1cc(-c2ccccc2)on1)S(C)(=O)=O [Compound 24] |  | > 20 | 2.76
13 | O=C(NCCc1cccc(C(F)(F)F)c1)c1cc(-c2ccccc2)on1 [Compound 69] |  | > 20 | > 20
14 | C[C@@H](NC(=O)c1cc(-c2ccccc2)on1)c1ccccc1 [Compound 62] |  | > 20 | > 20
15 | O=C(NCCc1ccc(Cl)c(Cl)c1)c1cc(-c2ccccc2)on1 [Compound 65] |  | > 20 | > 20
16 | O=C(NCCc1nccs1)c1cc(-c2ccccc2)on1 [Compound 90] |  | > 20 | 2.5
17 | O=C(Nc1cccc(N2CCOC2=O)c1)c1cc(-c2ccccc2)on1 [Compound 144] | 10 | > 20 | 
18 | O=C(NCCCN1CCOCC1)c1cc(-c2ccc(Cl)c(Cl)c2)on1 [Compound 120] | > 20 | > 20 | 
19 | CS(=O)(=O)c1ccc(-c2cc(C(=O)NCCCc3nccs3)no2)cc1 [Compound 39] |  | > 20 | > 20
20 | COc1ccc(-c2cc(C(=O)NCCCn3ccnn3)no2)cc1 [Compound 73] |  | > 20 | > 20
21 | S=C(NCCn1cccc1)c1cc(-c2ccccc2)on1 [Compound 106, N-(2-(1H-pyrrol-1-yl)ethyl)-5-phenylisoxazole-3-carbothioamide] |  | > 20 | > 20
22 | Cc1ccc(C(=O)NC2CCN(C(=O)c3cc(-c4ccccc4)on3)CC2)o1 [Compound 132] | > 20 | > 20 | 

Row | SMILES | EC50 (YAP; Table 4) [µM] | IC50 [1] [µM] | EC50 (YAP; Table 3) [µM]
23 | CCCN1C(=O)CCc2cc(NC(=O)c3ccn(CC)n3)ccc21 [Compound 149] | 3 | > 20 | 
24 | O=C(NCCc1nccs1)c1cc(-c2c(F)cccc2F)on1 [Compound 98] |  | > 20 | > 20
25 | O=C(NCCCNc1ccccc1F)c1cc(-c2ccccc2)on1 [Compound 85] |  | > 20 | > 20
26 | O=C(NCCCNc1cccc(F)c1)c1cc(-c2ccccc2)on1 [Compound 95] |  | > 20 | 2.5
27 | O=C(NCCn1cccc1)c1cc(-c2ccccc2)on1 [Compound 15] |  | > 20 | 1.87
28 | O=C(NCCc1cccc(F)c1)c1cc(-c2ccccc2)on1 [Compound 55] |  | > 20 | > 20
29 | O=C(NCCCc1nccs1)c1nc2ccccc2o1 [Compound 88] |  | > 20 | > 20
30 | Cc1ccn(CCCNC(=O)c2cc(-c3ccccc3)on2)c1 [Compound 19] |  | > 20 | 5.16
31 | O=C(c1cc(-c2ccccc2)on1)N1CCC(Nc2ncccn2)CC1 [Compound 137] | > 20 | > 20 | 
32 | O=C(NCCCc1nccs1)c1cc(-c2c(F)cc(F)cc2F)on1 [Compound 86] |  | > 20 | > 20
33 | O=C(NCCCn1ccnn1)c1cc(-c2ccccc2)on1 [Compound 14] |  | > 20 | 1.93
34 | CCN1CCN(C(CNC(=O)c2cc(-c3ccccc3)on2)c2ccc(OC)cc2)CC1 (centres unmarked) [Compound 118] | > 20 | > 20 | 
35 | O=C(NCCCn1ccnn1)c1cc(-c2cc(F)cc(F)c2)on1 [Compound 80] |  | > 20 | > 20
36 | CCN1C(=O)CCc2cc(NC(=O)c3n[nH]c4ccccc34)ccc21 [Compound 145] | 2 | > 20 | 
37 | Cc1ccc(CCNC(=O)c2cc(-c3ccccc3)on2)cc1 [Compound 48] |  | > 20 | > 20
38 | O=C(c1cc(-c2ccccc2)on1)N1CCC(c2nc3ccccc3s2)CC1 [Compound 138] | > 20 | > 20 | 
39 | O=C(NCCCn1ccnn1)c1cc(-c2ccc(C(F)(F)F)cc2)on1 [Compound 76] |  | > 20 | > 20
40 | CN1CCN(CCCNC(=O)c2cc(-c3ccccc3)on2)CC1 [Compound 127, N-[3-(4-methylpiperazin-1-yl)propyl]-5-phenyl-1,2-oxazole-3-carboxamide] | 2.68 | > 20 | 
41 | O=C(N[C@H]1C[C@@H]1n1cccc1)c1cc(-c2ccccc2)on1 [Compound 104] |  | > 20 | > 20
42 | O=C(NCCc1ccc(F)c(Cl)c1)c1cc(-c2ccccc2)on1 [Compound 68] |  | > 20 | > 20
43 | NC(=O)CCN(Cc1ccccc1)C(=O)c1cc(-c2ccccc2)on1 [Compound 133] | > 20 | > 20 | 
44 | O=C(NCCCn1ccnn1)c1cc(-c2cncnc2)on1 [Compound 82] |  | > 20 | > 20

Row | SMILES | EC50 (YAP; Table 4) [µM] | IC50 [1] [µM] | EC50 (YAP; Table 3) [µM]
45 | O=C(NCCCn1ccnn1)c1cc(-c2ccc(F)cc2)on1 [Compound 70] |  | > 20 | 5
46 | COc1cccc(CCNC(=O)c2cc(-c3ccccc3)on2)c1 [Compound 53] |  | > 20 | > 20
47 | O=C(NCCCn1cccc1)c1cc(-c2ccccc2F)on1 [Compound 16] |  | > 20 | 1.27
48 | O=C(NCCCn1cccc1)c1cc(-c2ccccc2)on1 [Compound 110] | 1.02 | > 20 | 
49 | O=C(NCCCc1nccs1)c1cc(-c2ccc(F)cc2F)on1 [Compound 89] |  | > 20 | 10
50 | O=C(NCCCN1CCOCC1)c1cc(-c2ccc(F)cc2)on1 [Compound 135] | > 20 | > 20 | 
51 | O=C(NCCCCn1cccc1)c1cc(-c2ccccc2)on1 [Compound 12] |  | > 20 | 1.88
52 | Cc1cncc(C(=O)NCCCc2nccs2)c1 [Compound 96] |  | > 20 | > 20
53 | CC(F)(F)C(C)(C)NC(=O)c1cc(-c2ccccc2)on1 [Compound 46] |  | > 20 | > 20
54 | O=C(NCCCn1ccnn1)c1cc(-c2ccccc2F)on1 [Compound 71] |  | > 20 | 5
55 | CN(CCC#N)C(=O)c1cc(-c2ccccc2)on1 [Compound 52] |  | > 20 | > 20
56 | CN(CC(F)F)C(=O)c1cc(-c2ccccc2)on1 [Compound 60] |  | 12 | > 20
57 | CC1CN(C(=O)CCNC(=O)c2cc(-c3ccccc3)on2)CC(C)O1 (centres unmarked) [Compound 124] | 6.71 | > 20 | 
58 | O=C(NCCCn1ccnn1)c1cc(-c2ccc(OC(F)(F)F)cc2)on1 [Compound 77] |  | > 20 | > 20
59 | O=C(NCCCn1cncn1)c1cc(-c2ccccc2)on1 [Compound 113] | 3.25 | > 20 | 
60 | O=C(NCCCc1nccs1)c1n[nH]c2ccccc12 [Compound 84] |  | > 20 | > 20
61 | Cc1ccc(C2CCCN2C(=O)c2cc(-c3ccc4c(c3)OCO4)on2)cc1 (centres unmarked) [Compound 108] | > 20 | > 20 | 
62 | CC(=O)N1CCN(CCCNC(=O)c2cc(-c3ccccc3)on2)CC1 [Compound 36] |  | > 20 | 4.36
63 | CCN(CC)CCCNC(=O)c1cc(-c2ccc(Cl)cc2)on1 [Compound 117] | > 20 | > 20 | 
64 | O=C(NCCCc1nccs1)c1cc(C(F)(F)F)ccn1 [Compound 91] |  | > 20 | 15
